Results on 4 compounds are retold here after PMC11983176 (ACS Omega, 2025).

As a reminder, the IC50 is the concentration that gives 50% inhibition.

Read-outs that look alike come from different tables or passages of the source.

Data set [1] in a line: Stability in PBS and Tris-HCl buffer by UV-vis spectroscopy. Type of data set: physicochemical. The note with it: PBS (0.1 M, pH 7.4) and Tris-HCl, 10% DMSO, room temperature, 5 min to 72 h.
The subject of another data set is T47D. Put plainly: MTT cytotoxicity assay, T47D. Type of data set: cell-based, human. (Tetrazolium assays rely on reduction of a dye to a coloured formazan, in cell work by metabolically active cells.)
Data set [2] relates to MCF-7. Description: MTT cytotoxicity assay, MCF-7. The note with it: read-out: Cytotoxicity (IC50) MCF-7, 48 h of treatment. Type of data set: cell-based, human.
In data set [3] the test system is MCF-7. Description: Cell viability by cell adhesion assay. Type of data set: cell-based, human. The note with it: MCF-7, 500 to 1.95 μM, 45 min.

As for `O=[N+]([O-])[O-].[Ag+]` [silver nitrate], the “stability in buffer solution” value in data set [1] is “precipitates appeared immediately”.
With “1-Cyclopentyl-2,3-dihydro-1H-benzimidazole [compound 1]”, the IC50 in the data set on T47D (read-out: Cytotoxicity (IC50) T47D, MTT assay, 48 h of treatment) was determined as 41 ± 2.12 µM; with MCF-7 [2], 37 ± 1.93 µM.
With `[Cl][Ag]` [silver chloride], in data set [1], the “stability in buffer solution” value is reported as “precipitates appeared immediately”.
With `CC/C(=C(\c1ccccc1)c1ccc(OCCN(C)C)cc1)c1ccccc1` [Tamoxifen], the IC50 with T47D (Homo sapiens, T47D, 48 h, read-out: Cytotoxicity (IC50) T47D, MTT assay, 48 h of treatment) was found to be 13 ± 0.71 µM. For the same compound, the “cell killing in adhesion assay” value in the data set on MCF-7 [3] is recorded as “slightly less initial effects on MCF-7 cells”.
